Our source for the Ki values is patent publication US8691753B2 (priority 2009, dated 2014).

Holding throughout (type): biochemical
The target in one experiment is MMP-10h (Homo sapiens (Human), UniProt P09238). The experiment in a line: Inhibition constant (Ki) on MMP-10h. The settings on record: human MMP-10.
The target in a further experiment is MMP-13h (Homo sapiens (Human), UniProt P45452). Description: Inhibition constant (Ki) on MMP-13h. The settings on record: human MMP-13. The source says: (§1) The inhibition constant Ki of these compounds has been determined according to the protocol described by Devel et al, 2006, J. Biol. Chem. (7).
(§2) In this table I and also in table II below, “h” corresponds to human. All of the compounds have therefore been evaluated on human MMPs.

A further experiment addresses MMP-8h (Homo sapiens (Human), UniProt P22894). The experiment in a line: Inhibition constant (Ki) on MMP-8h. The settings on record: human MMP-8.
The next experiment deals with MMP-2h (Homo sapiens (Human), UniProt P08253). Description: Inhibition constant (Ki) on MMP-2h. Conditions: human MMP-2.
Chain of MMP-2h (P08253 110-660): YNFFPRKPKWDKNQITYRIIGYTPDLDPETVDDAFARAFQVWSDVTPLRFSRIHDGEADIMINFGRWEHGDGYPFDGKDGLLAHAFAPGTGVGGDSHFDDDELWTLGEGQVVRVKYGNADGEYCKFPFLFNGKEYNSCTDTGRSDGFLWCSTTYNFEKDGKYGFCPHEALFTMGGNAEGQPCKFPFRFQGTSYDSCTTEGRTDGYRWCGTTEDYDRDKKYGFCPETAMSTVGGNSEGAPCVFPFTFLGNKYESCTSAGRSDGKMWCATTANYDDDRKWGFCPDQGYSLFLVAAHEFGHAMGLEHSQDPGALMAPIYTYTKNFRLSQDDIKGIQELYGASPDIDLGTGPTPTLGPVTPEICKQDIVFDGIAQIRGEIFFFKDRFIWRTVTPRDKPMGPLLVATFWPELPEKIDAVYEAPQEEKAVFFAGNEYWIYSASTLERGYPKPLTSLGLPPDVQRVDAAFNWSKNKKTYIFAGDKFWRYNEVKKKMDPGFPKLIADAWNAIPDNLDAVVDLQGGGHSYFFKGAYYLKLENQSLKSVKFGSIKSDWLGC
Excerpt: as §1, §2

A further experiment addresses MMP-3h (Homo sapiens (Human), UniProt P08254). The experiment in a line: Inhibition constant (Ki) on MMP-3h. The settings on record: human MMP-3.
Excerpt: as §1, §2

The target in the next experiment is MMP-14h (Homo sapiens (Human), UniProt P50281). Description: Inhibition constant (Ki) on MMP-14h. The settings on record: human MMP-14.
Excerpt: as §1, §2

The target of the next experiment is MMP-9h (Homo sapiens (Human), UniProt P14780). The experiment in a line: Inhibition constant (Ki) on MMP-9h. Conditions: human MMP-9.
Chain of MMP-9h (P14780 94-707): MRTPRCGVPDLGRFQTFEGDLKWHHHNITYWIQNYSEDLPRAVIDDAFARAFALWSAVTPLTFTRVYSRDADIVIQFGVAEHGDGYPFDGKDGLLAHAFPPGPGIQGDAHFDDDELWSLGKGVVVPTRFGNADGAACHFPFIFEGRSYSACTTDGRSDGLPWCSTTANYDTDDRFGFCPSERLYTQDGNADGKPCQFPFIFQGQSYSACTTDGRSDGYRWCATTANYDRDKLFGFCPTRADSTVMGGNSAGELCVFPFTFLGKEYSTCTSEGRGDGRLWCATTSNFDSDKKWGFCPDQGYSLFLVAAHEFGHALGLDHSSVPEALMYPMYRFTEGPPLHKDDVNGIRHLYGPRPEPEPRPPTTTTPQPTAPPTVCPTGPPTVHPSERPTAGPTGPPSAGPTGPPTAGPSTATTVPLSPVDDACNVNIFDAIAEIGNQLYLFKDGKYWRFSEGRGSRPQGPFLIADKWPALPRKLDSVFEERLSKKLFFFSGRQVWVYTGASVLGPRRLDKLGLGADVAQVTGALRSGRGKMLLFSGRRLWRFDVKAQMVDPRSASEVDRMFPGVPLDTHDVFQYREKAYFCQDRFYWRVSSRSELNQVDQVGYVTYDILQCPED
Excerpt: as §1, §2

In a further experiment the target is MMP-12h (Homo sapiens (Human), UniProt P39900). The experiment in a line: Inhibition constant (Ki) on MMP-12h. The settings on record: human MMP-12.
Chain of MMP-12h (P39900 106-470): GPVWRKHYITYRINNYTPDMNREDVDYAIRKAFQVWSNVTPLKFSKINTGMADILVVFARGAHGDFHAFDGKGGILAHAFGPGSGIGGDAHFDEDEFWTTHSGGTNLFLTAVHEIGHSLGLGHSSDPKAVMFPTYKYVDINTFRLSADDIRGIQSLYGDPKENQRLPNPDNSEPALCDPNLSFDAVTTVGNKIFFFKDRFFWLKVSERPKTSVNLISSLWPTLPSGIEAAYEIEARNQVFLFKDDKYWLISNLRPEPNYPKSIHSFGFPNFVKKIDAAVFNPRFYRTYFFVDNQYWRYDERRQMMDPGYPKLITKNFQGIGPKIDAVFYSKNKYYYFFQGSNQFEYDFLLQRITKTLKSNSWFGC

Read-outs that look alike come from different tables or passages of the source. Where only a bound is given, the exact number is not on record here.

Chain of MMP-3h (P08254 100-477): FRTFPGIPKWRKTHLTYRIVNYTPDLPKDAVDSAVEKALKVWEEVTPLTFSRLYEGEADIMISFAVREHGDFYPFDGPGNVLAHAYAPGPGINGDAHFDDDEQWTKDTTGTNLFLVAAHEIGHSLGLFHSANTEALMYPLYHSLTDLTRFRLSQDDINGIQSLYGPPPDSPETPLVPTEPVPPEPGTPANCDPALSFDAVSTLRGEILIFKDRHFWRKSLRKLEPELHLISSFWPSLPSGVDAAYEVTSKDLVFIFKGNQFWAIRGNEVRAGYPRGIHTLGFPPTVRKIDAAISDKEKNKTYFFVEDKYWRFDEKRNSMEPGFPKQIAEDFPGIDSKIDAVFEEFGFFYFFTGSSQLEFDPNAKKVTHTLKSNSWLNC
Chain of MMP-8h (P22894 101-467): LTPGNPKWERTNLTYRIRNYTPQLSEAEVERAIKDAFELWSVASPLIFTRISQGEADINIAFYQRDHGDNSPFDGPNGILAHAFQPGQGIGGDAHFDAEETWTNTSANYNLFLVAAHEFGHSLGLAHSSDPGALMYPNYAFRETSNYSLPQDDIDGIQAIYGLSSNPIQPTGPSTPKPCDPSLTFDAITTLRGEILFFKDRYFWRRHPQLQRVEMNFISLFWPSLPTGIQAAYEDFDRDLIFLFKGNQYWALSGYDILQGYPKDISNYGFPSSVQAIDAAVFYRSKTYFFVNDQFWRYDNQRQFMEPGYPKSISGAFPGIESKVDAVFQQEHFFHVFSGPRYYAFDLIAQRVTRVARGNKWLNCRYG
Chain of MMP-10h (P09238 99-476): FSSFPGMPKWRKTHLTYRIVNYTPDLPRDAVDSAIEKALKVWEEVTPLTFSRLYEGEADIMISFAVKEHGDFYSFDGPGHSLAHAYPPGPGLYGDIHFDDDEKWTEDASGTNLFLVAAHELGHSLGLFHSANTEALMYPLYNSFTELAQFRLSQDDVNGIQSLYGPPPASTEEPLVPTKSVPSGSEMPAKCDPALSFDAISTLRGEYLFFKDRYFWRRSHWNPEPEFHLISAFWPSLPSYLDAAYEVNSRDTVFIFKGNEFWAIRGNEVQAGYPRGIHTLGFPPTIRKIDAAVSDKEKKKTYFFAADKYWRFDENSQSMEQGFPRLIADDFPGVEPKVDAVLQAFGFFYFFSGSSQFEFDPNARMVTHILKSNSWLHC

In the case of `NC(=O)[C@H](Cc1ccc(O)cc1)NC(=O)[C@H](CCC(=O)O)NC(=O)CCc1ccc(-c2ccccc2)cc1` [Compound 46, (S)-5-((S)-1-amino-3-(4-hydroxyphenyl)-1-oxopropan-2-ylamino)-4-(3-(biphenyl-4-yl)propanamido)-5-oxopentanoic acid], the inhibition constant Ki (commonly a dissociation constant, usually derived from enzyme kinetics or from competition with a known ligand) on MMP-10h (read-out: Ki MMP-10h) was over 1000 nM; at MMP-13h (read-out: Ki MMP-13h), over 1000 nM; at MMP-8h (read-out: Ki MMP-8h), 270 nM; at MMP-2h (read-out: Ki MMP-2h), 632 nM; at MMP-3h (read-out: Ki MMP-3h) it was over 10000 nM; at MMP-14h (read-out: Ki MMP-14h), over 5000 nM. Besides, the Ki was over 1000 nM at MMP-9h (read-out: Ki MMP-9h) and 52 nM on MMP-12h (read-out: Ki MMP-12h).

As to `O=C(O)CC[C@H](NC(=O)CCc1ccc(-c2cccs2)cc1)C(=O)Nc1cccc(CC(=O)O)c1` [Compound 90, (S)-5-(3-(carboxymethyl)phenylamino)-5-oxo-4-(3-(4-(thiophen-2-yl)phenyl)propanamido)pentanoic acid], the Ki at MMP-10h (read-out: Ki MMP-10h) was 143 nM; at MMP-13h (read-out: Ki MMP-13h), 366 nM; at MMP-8h (read-out: Ki MMP-8h) it was 18 nM; on MMP-2h (read-out: Ki MMP-2h), 116 nM; on MMP-3h (read-out: Ki MMP-3h), over 1000 nM; on MMP-14h (read-out: Ki MMP-14h) it was 430 nM. The Ki is 284 nM at MMP-9h (read-out: Ki MMP-9h) and 8 nM on MMP-12h (read-out: Ki MMP-12h).

Turning to `NC(=O)[C@H](CCC(=O)O)NC(=O)[C@H](Cc1cnc[nH]1)NC(=O)CCc1ccc(-c2cc(-c3ccccc3)cs2)cc1` [Compound 104, (S)-4-((S)-3-(1H-imidazol-5-yl)-2-(3-(4-(4-phenylthiophen-2-yl)phenyl)propanamido)propanamido)-5-amino-5-oxopentanoic acid], the Ki on MMP-10h (read-out: Ki MMP-10h) was over 5000 nM; on MMP-13h (read-out: Ki MMP-13h) it was over 1000 nM; on MMP-8h (read-out: Ki MMP-8h), over 1000 nM; at MMP-2h (read-out: Ki MMP-2h), over 5000 nM; on MMP-3h (read-out: Ki MMP-3h) it was over 10000 nM; on MMP-14h (read-out: Ki MMP-14h) it was over 5000 nM. Besides, the inhibitory constant (Ki) is over 5000 nM on MMP-9h (read-out: Ki MMP-9h) and 40 nM on MMP-12h (read-out: Ki MMP-12h).

Regarding `NC(=O)[C@H](CCC(=O)O)NC(=O)[C@H](Cc1ccc(O)cc1)NC(=O)CCc1ccc(-c2ccc(-c3ccccc3)cc2)cc1` [Compound 75, (S)-5-amino-4-((S)-3-(4-hydroxyphenyl)-2-(3-(4′-phenylbiphenyl-4-yl)propanamido)propanamido)-5-oxopentanoic acid], the inhibition constant Ki on MMP-10h (read-out: Ki MMP-10h) was over 1000 nM; on MMP-13h (read-out: Ki MMP-13h), 232 nM; on MMP-8h (read-out: Ki MMP-8h), over 5000 nM; at MMP-2h (read-out: Ki MMP-2h) it was over 1000 nM; on MMP-3h (read-out: Ki MMP-3h) it was 252 nM; at MMP-14h (read-out: Ki MMP-14h), over 10000 nM. The Ki was over 10000 nM at MMP-9h (read-out: Ki MMP-9h) and 122 nM at MMP-12h (read-out: Ki MMP-12h).

On to `NC(=O)[C@H](CC(=O)O)NC(=O)[C@H](CCC(=O)O)NC(=O)CCc1cc(-c2ccc(-c3cccc(Cl)c3)cc2)no1` [Compound 8, (S)-5-((S)-1-amino-3-carboxy-1-oxopropan-2-ylamino)-4-(3-(3-(3′-chlorobiphenyl-4-yl)isoxazol-5-yl)propanamido)-5-oxopentanoic acid], for which the Ki on MMP-10h (read-out: Ki MMP-10h) was 35 nM; on MMP-13h (read-out: Ki MMP-13h), 30 nM; at MMP-8h (read-out: Ki MMP-8h), 556 nM; at MMP-2h (read-out: Ki MMP-2h), 112 nM; at MMP-3h (read-out: Ki MMP-3h), 243 nM; at MMP-14h (read-out: Ki MMP-14h), over 1000 nM. Also, the inhibition constant (Ki) is over 1000 nM at MMP-9h (read-out: Ki MMP-9h) and 11 nM at MMP-12h (read-out: Ki MMP-12h).

Take `COc1cccc(-c2ccc(CCC(=O)N[C@@H](CCC(=O)O)C(=O)N[C@@H](CCC(=O)O)C(N)=O)cc2)c1` [Compound 59, (S)-5-amino-4-((S)-4-carboxy-2-(3-(3′-methoxybiphenyl-4-yl)propanamido)butanamido)-5-oxopentanoic acid]: the Ki on MMP-10h (read-out: Ki MMP-10h) was over 1000 nM; at MMP-13h (read-out: Ki MMP-13h) it was over 5000 nM; on MMP-8h (read-out: Ki MMP-8h), over 1000 nM; on MMP-2h (read-out: Ki MMP-2h), over 5000 nM; on MMP-3h (read-out: Ki MMP-3h), over 10000 nM; on MMP-14h (read-out: Ki MMP-14h) it was over 10000 nM. Further, the inhibition constant (Ki) is over 5000 nM on MMP-9h (read-out: Ki MMP-9h) and 35 nM at MMP-12h (read-out: Ki MMP-12h).

On to `CC(C)C[C@H](NC(=O)[C@H](CCC(=O)O)NC(=O)CCc1ccc(-c2ccc(-c3ccccc3)cc2)cc1)C(N)=O` [Compound 69, (S)-5-((S)-1-amino-4-methyl-1-oxopentan-2-ylamino)-4-(3-(4′-phenylbiphenyl-4-yl)propanamido)-5-oxopentanoic acid], for which the Ki at MMP-10h (read-out: Ki MMP-10h) is 382 nM; at MMP-13h (read-out: Ki MMP-13h), 81 nM; on MMP-8h (read-out: Ki MMP-8h), 567 nM; at MMP-2h (read-out: Ki MMP-2h), 332 nM; at MMP-3h (read-out: Ki MMP-3h), 258 nM; on MMP-14h (read-out: Ki MMP-14h), over 5000 nM. The inhibition constant (Ki) was over 1000 nM on MMP-9h (read-out: Ki MMP-9h) and 7.8 nM at MMP-12h (read-out: Ki MMP-12h).

On to `NCCCC[C@H](NC(=O)[C@H](CCC(=O)O)NC(=O)CCc1ccc(-c2ccc(-c3ccccc3)cc2)cc1)C(N)=O` [Compound 63, (S)-5-((S)-1,6-diamino-1-oxohexan-2-ylamino)-4-(3-(4′-phenylbiphenyl-4-yl)propanamido)-5-oxopentanoic acid], for which the inhibitory constant (Ki) is 447 nM on MMP-10h (read-out: Ki MMP-10h); 55 nM at MMP-13h (read-out: Ki MMP-13h); 621 nM on MMP-8h (read-out: Ki MMP-8h); 110 nM at MMP-2h (read-out: Ki MMP-2h); over 1000 nM on MMP-3h (read-out: Ki MMP-3h); over 1000 nM at MMP-14h (read-out: Ki MMP-14h). The figures for the Ki at MMP-9h (read-out: Ki MMP-9h) and on MMP-12h (read-out: Ki MMP-12h) were over 1000 nM and 14.3 nM, respectively.

With `C[C@H](NC(=O)[C@H](CCC(=O)O)NC(=O)CCc1ccc(-c2ccccc2)cc1)C(N)=O` [Compound 47, (S)-5-((S)-1-amino-1-oxopropan-2-ylamino)-4-(3-(biphenyl-4-yl)propanamido)-5-oxopentanoic acid], the Ki on MMP-10h (read-out: Ki MMP-10h) is over 1000 nM; on MMP-13h (read-out: Ki MMP-13h) it was over 1000 nM; on MMP-8h (read-out: Ki MMP-8h) it was 311 nM; on MMP-2h (read-out: Ki MMP-2h), over 1000 nM; on MMP-3h (read-out: Ki MMP-3h), over 10000 nM; at MMP-14h (read-out: Ki MMP-14h), over 5000 nM. Moreover, the Ki at MMP-9h (read-out: Ki MMP-9h) was over 1000 nM; at MMP-12h (read-out: Ki MMP-12h), 58 nM.

On to `NC(=O)[C@H](CCC(=O)O)NC(=O)[C@H](CCC(=O)O)NC(=O)CCc1ccc(-c2cccc(Cl)c2)cc1` [Compound 57, (S)-5-amino-4-((S)-4-carboxy-2-(3-(3′-chlorobiphenyl-4-yl)propanamido)butanamido)-5-oxopentanoic acid], for which the inhibitory constant (Ki) on MMP-10h (read-out: Ki MMP-10h) is over 5000 nM; at MMP-13h (read-out: Ki MMP-13h), over 5000 nM; at MMP-8h (read-out: Ki MMP-8h), over 1000 nM; at MMP-2h (read-out: Ki MMP-2h) it was over 1000 nM; at MMP-3h (read-out: Ki MMP-3h) it was over 10000 nM; at MMP-14h (read-out: Ki MMP-14h) it was over 10000 nM. Moreover, the inhibition constant Ki on MMP-9h (read-out: Ki MMP-9h) was over 1000 nM; at MMP-12h (read-out: Ki MMP-12h), 57 nM.

In the case of `NC(=O)[C@H](CCC(=O)O)NC(=O)[C@H](CCC(=O)O)NC(=O)CCc1ccc(-c2cccc(CO)c2)cc1` [Compound 60, (S)-5-amino-4-((S)-4-carboxy-2-(3-(3′-(hydroxymethyl)biphenyl-4-yl)propanamido)butanamido)-5-oxopentanoic acid], the Ki was over 5000 nM on MMP-10h (read-out: Ki MMP-10h); over 5000 nM on MMP-13h (read-out: Ki MMP-13h); 809 nM at MMP-8h (read-out: Ki MMP-8h); over 5000 nM on MMP-2h (read-out: Ki MMP-2h); over 10000 nM on MMP-3h (read-out: Ki MMP-3h); over 10000 nM at MMP-14h (read-out: Ki MMP-14h). Also, the inhibition constant (Ki) on MMP-9h (read-out: Ki MMP-9h) is over 5000 nM; on MMP-12h (read-out: Ki MMP-12h), 52 nM.

For `NC(=O)[C@H](CCC(=O)O)NC(=O)[C@H](CCC(=O)O)NC(=O)CCc1ccc(-c2nccs2)cc1` [Compound 37, (S)-5-amino-4-((S)-4-carboxy-2-(3-(4-(thiazol-2-yl)phenyl)propanamido)butanamido)-5-oxopentanoic acid], the Ki on MMP-10h is over 1000 nM; on MMP-13h, 240 nM; on MMP-8h, over 1000 nM; at MMP-2h, 657 nM; at MMP-3h it was over 5000 nM; at MMP-14h, over 1000 nM. Besides, the Ki at MMP-9h is over 1000 nM; on MMP-12h, 369 nM.
